For series [1] the following is noted: Experimental, cited from earlier work.
For series [2] the following is noted: in vivo; cited from earlier work.
For series [3] the following is noted: Experimental (Buprenorphine at 25° C.); cited from earlier work.
The conditions of series [4]: Experimental; cited from earlier work.
A short description of the next series: physchem. The conditions noted are these: BB.
For series [5] the following is noted: cited from earlier work.

In brackets after ≈: the same amount, converted by molar mass. Where two headings read alike, the source gives them in different places. Marks after values point to notes of the source that are not given here.

Protocol for physchem: Briefly, samples were prepared by mixing active agent and solvent and were tested at various time points after mixing and after storage at various temperatures. The samples were tested for the solubility of the active agent (mg/mL), calculated as the free base equivalent. Each data point is the average of two replicates unless otherwise specified.

As for `O=C1CCc2ccc(OCCCCN3CCN(c4cccc(Cl)c4Cl)CC3)cc2N1` [Aripiprazole], the “Water Solubility” value in series [1] was 0.00001%. In addition, in series [2], the “Oral Half-life” value was 75 h. For the compound `CN1CC2c3ccccc3Oc3ccc(Cl)cc3C2C1` (centres unmarked) [Asenapine], the “Oral Half-life” value in series [2] was approximately 24 h. As for `Nc1ncn([C@@H]2O[C@H](CO)[C@@H](O)[C@H]2O)c(=O)n1` [Azacitidine], the “Oral Half-life” value in series [2] is approximately 4 h.

For `O=c1ccc2ccc(OCCCCN3CCN(c4cccc5sccc45)CC3)cc2[nH]1` [Brexpiprazoie], in series [2], the “Oral Half-life” value is 91 h. Turning to `C[C@@](Cc1ccc(O)c(O)c1)(NN)C(=O)O` [Carbidopa], the “Water Solubility” value in series [1] was 3.8 mg/mL. In addition, the pKa in series [3] was 2.3. Besides, the “Oral Half-life” value in series [2] is approximately 1.78 h. Further, the logP in series [4] is on record as −1.9. In the case of `Nc1ncn([C@H]2C[C@H](O)[C@@H](CO)O2)c(=O)n1` [Decitabine], the “Oral Half-life” value in series [2] is 0.51 ± 0.31 h. On to `C[C@@H]1CCO[C@H]2Cn3cc(C(=O)NCc4ccc(F)cc4F)c(=O)c(O)c3C(=O)N12` [Dolutegravir], for which the “Water Solubility” value in series [1] (in words) was “Slightly soluble”. In series [2], the “Oral Half-life” value was 14 h. In addition, the logP in series [4] was 2.2. Regarding `COc1cc2c(cc1Cc1cccc(Cl)c1F)c(=O)c(C(=O)O)cn2[C@H](CO)C(C)C` [Elvitegravir], the “Oral Half-life” value in series [2] was 8.7 h.

Regarding `CCNC(=O)[C@@H]1CCCN1C(=O)[C@H](CCCNC(=N)N)NC(=O)[C@H](CC(C)C)NC(=O)[C@@H](CC(C)C)NC(=O)[C@H](Cc1ccc(O)cc1)NC(=O)[C@H](CO)NC(=O)[C@H](Cc1c[nH]c2ccccc12)NC(=O)[C@H](Cc1c[nH]cn1)NC(=O)[C@@H]1CCC(=O)N1` [Leuprolide], the “Oral Half-life” value in series [2] was approximately 3 h. With `N[C@@H](Cc1ccc(O)c(O)c1)C(=O)O` [Levodopa], the “Water Solubility” value in series [1] was 5 mM. Also, the “Oral Half-life” value in series [2] is 0.833 h. For the same compound, the logP in series [4] is 0.05. As for `O=C1[C@@H]2[C@H]3CC[C@H](C3)[C@@H]2C(=O)N1C[C@@H]1CCCC[C@H]1CN1CCN(c2nsc3ccccc23)CC1` [Lurasidone], the “Oral Half-life” value in series [2] was 18 to 37 h. Consider `O=C1CC[C@@]2(O)[C@H]3Cc4ccc(O)c5c4[C@@]2(CCN3CC2CC2)[C@H]1O5` [Naltrexone], for which the logP in series [4] was 1.92.

As for `Cc1cc2c(s1)Nc1ccccc1N=C2N1CCN(C)CC1` [Olanzapine], the “Oral Half-life” value in series [2] is recorded as 21 −54 hrs.

Regarding `Cc1nc2n(c(=O)c1CCN1CCC(c3noc4cc(F)ccc34)CC1)CCCC2O` (centres unmarked) [Paliperidone], in series [2], the “Oral Half-life” value is approximately 23 h. In series [4], the logP was 1.8.

On to `Cc1nnc(C(=O)NC(C)(C)c2nc(C(=O)NCc3ccc(F)cc3)c(O)c(=O)n2C)o1` [Raltegravir], for which the “Oral Half-life” value in series [2] was 9 h. Turning to `Cc1cc(/C=C/C#N)cc(C)c1Nc1ccnc(Nc2ccc(C#N)cc2)n1` [Rilpivirine], the “Water Solubility” value in series [1] is reported as less than 0.1 mg/mL. For the same compound, the “Oral Half-life” value in series [2] was 34 to 55 h. The logP in series [4] is 4.86. As for `Cc1cn([C@H]2C=C[C@@H](CO)O2)c(=O)[nH]c1=O` [Stavudine], the “Water Solubility” value in series [1] (at 21° C.) is 5-10 g/100 mL at. Moreover, the “Oral Half-life” value in series [2] was 0.8 to 1.5 h. Also, the logP in series [4] is recorded as −0.72. Take `CC(C)OC(=O)[C@H](C)N[P@](=O)(CO[C@H](C)Cn1cnc2c(N)ncnc21)Oc1ccccc1` [TAF Free base, tenofovir alafenamide]: in “physchem”, the solubility at 4 days was 5 mg/mL (≈ 10.5 mM). As to `CC(C)OC(=O)[C@H](C)N[P@](=O)(CO[C@H](C)Cn1cnc2c(N)ncnc21)Oc1ccccc1.CC(C)OC(=O)[C@H](C)N[P@](=O)(CO[C@H](C)Cn1cnc2c(N)ncnc21)Oc1ccccc1.O=C(O)/C=C/C(=O)O` [TAF Hemifumarate], the “Solubility (mg/mL, Calculated as Free Base Equivalent)” value is 11 mg/mL (ACN, 37° C./5 days); 3.9* mg/mL (BB, 37° C., asterisk: taken at 4 days as opposed to 5 days); 97 mg/mL (DCM, 37° C./5 days); 132 mg/mL (DMSO, 37° C./5 days); 160 mg/mL (NMP, 37° C./5 days); 22 mg/mL (PC, 37° C./5 days). Take `Nc1ccn([C@H]2CC[C@@H](CO)O2)c(=O)n1` [Zalcitabine]: the “Oral Half-life” value in series [2] was 2 h. Turning to sucrose acetate isobutyrate [SAIB], the viscosity result in series [5] (at 37° C.) is on record as “about 320,000 cP”; in series [5] (at 80° C.), “about 600 cP”; in series [5] (at about 25° C.), “about 2 million”.
